Experimental data published in patent US20160045606A1, “PARTIALLY-DENATURED PROTEIN HYDROGELS” (Northwestern University, priority 2014, published 2016).
“Also recorded” adds a separate entry of the source.

Key:
N-form albumin = N-form albumin (Bos taurus, UniProt P02769); test: atRA binding by tryptophan fluorescence quenching at 340 nm, BSA at pH 7.4; parameters: species or system bovine
Procedure: (§1) All trans retinoic acid (atRA, 82625, Sigma, St. Louis, 206 MO) was added to solutions of BSA with molar ratio concentrations including 0:1, 0.08:1, 0.1:1, 0.13:1, 0.2:1, 0.4:1, 0.8:1, 1.2:1, 1.6:1, and 2:1 (atRA:BSA). A baseline fluorescence intensity of BSA at pH 7.4 and 3.5 measured at 340 nm with excitation at 295 nm was recorded (n=4 for each molar ratio concentration) as reported in the literature (Maiti et al. Int J Biol Macromol. 2006; 38(3-5):197-202; herein incorporated by reference in its entirety) using the plate reader Tecan Safire II (Tecan, Maennedorf, Switzerland). Then, atRA binding to BSA at pH 7.4 and 3.5 was assessed immediately after the addition of atRA at the different molar ratios. For measuring atRA release from hydrogel disks, a higher molar ratio concentration of 8:1 (atRA:BSA) was used when incorporating atRA into BSA precursor solutions before gelation. Precursor solutions were processed as normal to fabricate atRA-loaded PBSA and TBSA hydrogel disks with a final volume of 0.5 mL. Disks were submerged in 10 mL PBS at 37° C. for atRA release studies. Eluates were collected and replaced at 1, 3, 6, 12, 24, 48, 72, 144, and 240 hour sampling times and fluorescence intensity of atRA at 340 nm and BSA at 280 nm was collected with a NanoDrop™ 2000 C Spectrophotometer (ThermoScientific™, Waltham, Mass.).

F-form albumin = F-form albumin (Bos taurus, UniProt P02769); test: atRA binding by tryptophan fluorescence quenching at 340 nm, BSA at pH 3.5; parameters: species or system bovine; conditions: pH 3.5, excitation 295 nm
Procedure: as §1

[1] = system: Human aortic smooth muscle cells (HASMC); test: Scratch test migration assay; type: cell-based; conditions: cells exposed directly to 25 ng/mL atRA in media, 24 hr scratch wound, serum starved, vs negative control
Procedure: Human aortic smooth muscle cells (HASMC) (Lonza, Basel, Switzerland) (passage 5) were cultured in SmGM-2 media. All cells were cultured at 37° C. in a humidified incubator containing 5% CO2. HASMCs (seeding density 1×10^4 cells/cm2) were seeded onto TCP surfaces and grown until 90% confluent. Cell culture media was changed every 2 days until confluence after which serum-free SmGM-2 media was used to create a nutrient starved environment for 24 hrs. A vertical scratch was made with a sterile 200 uL pipette tip in the confluent HASMC layer, rinsed with warm PBS, and replaced with 1 mL SmGM-2 media. The underside of the dish was marked near the wound area to aid in identification. Wells were randomly placed into 4 groups which received either a 100 uL dose of eluted material from atRA loaded PBSA or TBSA release study at day 10, a 100 uL dose of 24 ng atRA dissolved in PBS, or a control 100 uL of PBS. A light microscope (Nikon Eclipse TE2000-U) was used to capture images using Image Pro 5.0 software (MediaCybernetics, Bethesda, Md.) of the wound area immediately at day 0 and at various times until the control wound closed at 24 hrs. Wound areas were determined using an automated wound area measurement macro with the ImageJ 1.43r software (NIH, Bethesda, Md.). The measurement of migration was determined by subtracting the cell-free area at day 0 from the cell-free area at 24 hrs. […]

[2] = biological target: N-form albumin (TRP 213 atRA binding site) (Homo sapiens, UniProt P02768); conditions: literature estimate (Maiti et al. 2006), TRP 213 site on N-form albumin; cited from earlier work
[3] = In vivo subcutaneous rat model (biocompatibility); parameters: species or system Sprague-Dawley rats; conditions: 0.5 mL subcutaneous injection
Procedure: Eight female Sprague-Dawley rats (Harlan Laboratories, Inc.) weighing 150-175 g were used for in vivo biocompatibility testing of the BSA gels. Four rats were randomly assigned into two groups for explant time points at 4 days and 4 weeks for evaluation of the acute and chronic inflammatory response. Animals were anesthetized using the inhalant machine Impact 6 (Vetequip Inc., Pleasanton, Calif.). Isofluorane was administered at a concentration of 2% with an oxygen flow rate of 2 L/min. Following anesthesia; the backs of the animals were shaved and then disinfected with […] followed by alcohol and a second […] wipe. Two incisions of approximately 1.5 cm in length were made at the implantation sites and subcutaneous pockets were created by blunt dissection in each location. 20 wt % Albumin hydrogels 184 (both PBSA and TBSA) were fabricated as described in the methods section 2.1 and were cut into disks (h=0.5 cm, r=0.6 cm) using a sterile biopsy punch. In one location, an acid leached 20 wt % PBSA gel disk was implanted into the subcutaneous pocket far from the incision site. At the other incision site, a 20 wt % TBSA gel disk was implanted. A control saline injection and pH 7.4 (20 wt %) BSA solution was injected into the back of the rat in the two remaining implantation sites. […]

Chain of N-form albumin (P02769 25-607): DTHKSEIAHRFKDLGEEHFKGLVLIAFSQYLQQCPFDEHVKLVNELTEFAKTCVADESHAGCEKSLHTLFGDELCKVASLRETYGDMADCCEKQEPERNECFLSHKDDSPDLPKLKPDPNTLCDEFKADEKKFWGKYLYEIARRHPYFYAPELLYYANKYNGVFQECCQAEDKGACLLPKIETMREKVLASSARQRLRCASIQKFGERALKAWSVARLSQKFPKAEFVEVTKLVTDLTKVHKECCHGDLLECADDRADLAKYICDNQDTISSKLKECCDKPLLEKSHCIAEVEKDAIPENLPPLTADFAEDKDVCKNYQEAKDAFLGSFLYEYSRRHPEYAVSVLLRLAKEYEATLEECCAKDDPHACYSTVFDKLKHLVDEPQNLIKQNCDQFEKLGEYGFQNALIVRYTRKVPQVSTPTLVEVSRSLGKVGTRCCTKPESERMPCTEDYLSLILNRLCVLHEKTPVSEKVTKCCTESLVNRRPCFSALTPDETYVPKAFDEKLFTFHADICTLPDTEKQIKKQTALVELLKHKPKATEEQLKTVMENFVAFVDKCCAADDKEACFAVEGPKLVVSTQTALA
Chain of F-form albumin (P02769 25-607): as above
Chain of N-form albumin (TRP 213 atRA binding site) (P02768 25-609): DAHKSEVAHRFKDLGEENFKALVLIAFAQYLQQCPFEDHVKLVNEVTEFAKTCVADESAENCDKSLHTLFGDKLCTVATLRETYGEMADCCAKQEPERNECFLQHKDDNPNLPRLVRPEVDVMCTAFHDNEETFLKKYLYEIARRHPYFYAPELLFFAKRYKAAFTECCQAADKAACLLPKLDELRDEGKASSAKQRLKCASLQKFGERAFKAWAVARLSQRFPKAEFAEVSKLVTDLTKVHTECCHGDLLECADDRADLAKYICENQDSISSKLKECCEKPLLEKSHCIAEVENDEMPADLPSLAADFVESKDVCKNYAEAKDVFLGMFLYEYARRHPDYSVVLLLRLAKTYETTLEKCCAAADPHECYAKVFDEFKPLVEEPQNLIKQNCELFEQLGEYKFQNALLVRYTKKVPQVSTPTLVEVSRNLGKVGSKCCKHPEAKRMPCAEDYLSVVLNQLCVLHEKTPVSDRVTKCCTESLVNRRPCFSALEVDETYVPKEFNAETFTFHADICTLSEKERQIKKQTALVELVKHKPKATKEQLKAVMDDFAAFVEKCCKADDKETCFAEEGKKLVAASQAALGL

Compound	fluorescence quenching as a fraction of the initial fluorescence signal (N-form albumin; N-form albumin compared with F-form albumin)	tryptophan fluorescence signal at 340 nm upon addition of atRA (N-form albumin; N-form albumin, pH 7.4, excitation 295 nm)	tryptophan fluorescence signal at 340 nm upon addition of atRA (F-form albumin)	HASMC migration [1]	binding energy [2] [kJ/mol]	inflammatory response ([3]; 4 weeks)	inflammatory response (number of cells in the subcutaneous pocket) ([3]; 4 days, compared to saline control)
CC1=C(/C=C/C(C)=C/C=C/C(C)=C/C(=O)O)C(C)(C)CCC1 [atRA, All trans retinoic acid]	greater fluorescence quenching than F-form albumin	rapidly quenched	rapidly quenched	inhibited; also recorded: significant (p<0.05) reduction in cell migration	-31.7		
BSA solution: control 20 wt % bovine serum albumin solution at pH 7.4, injected subcutaneously						decreased significantly	increased general inflammatory response
